Experimental data published in US20160199463A1, “HDAC2 DEFENDS VASCULAR ENDOTHELIUM FROM INJURY” (The Johns Hopkins University, priority 2014, published 2016).
Entries after “also recorded” stand apart in the source; their conditions may differ. Blank lines part the entries; values can stand above or below the compound they belong to. Numbered stars: 1 amine (or outer) side, 2 acyl side, 3 side chain; on linkers, the order of the positions; unused ones are H or OH. Bridge positions count the residues as written; N and C are the ends. Square brackets hold non-standard residues; d marks the D form. Peptide text beside a SMILES is read from it. I, II: the chains in the order shown. Actinocin(9to1) = Cc1c2oc3c(C)ccc(C(=O)[*:1])c3nc-2c(C(=O)[*:2])c(N)c1=O; NMeV = CN[C@H](C(=O)O)C(C)C; Sar = CNCC(=O)O

Legend:
SIRT = conditions: cited from earlier work
Arg2 mRNA = Arg2 mRNA in HAECs (RT-PCR, real-time PCR); format: cell-based, human
Description: Total RNA was extracted from segments of mice aortas and HAEC using Trizol and PureLink (Invitrogen). RNA was then reverse transcribed with oligo dT primers to obtain cDNA and quantitative real time PCR (Applied Biosystems) was performed using SYBR Green Supermix mix (Applied Biosystems) whereas semiquantitative RTPCR was performed using conventional Biorad PCR machine and the following primer sets: Real Time PCR data are expressed as “fold change”, which is calculated as 2-ΔΔCt.

[1] = system: arginase activity in HAECs; assay: Arginase activity assay (urea production) in HAEC lysates; format: cell-based, human; conditions: 30 minutes; nicotinamide 5 mmol/L, TSA 1 μmol/L
Description: HAEC were lysed using RIPA buffer (50 mM of Tris.HCl, pH 7.5, 0.1 mM EDTA, 0.1% Triton X-100, and protease inhibitor), and centrifuged for 30 min at 14,000 g at 4° C. 50 μL (50-100 μg) of supernatant was added to 75 μl of 10 mM MnCl2 made in Tris-HCl (50 mM, pH 7.5) and heat activated by incubating at 55-60° C. for 10 min. 50 μL of L-Arginine that was prepared in 300 mM Tris-HCL, pH 9.7 were then added to the activated cell lysates to achieve final concentrations of 150 mM and incubated at 37° C. for 3 hrs with shaking. The reaction was stopped by adding 400 μL of an acid solution (H2SO4: H3PO4: H20=1:3:7). For colorimetric determination of urea, α-isonitrosopropiophenone (25 μL, 9% in ethanol) was added and further heated at 100° C. for 45 min. Samples were allowed to cool at room temperature in the dark for 10 min and urea concentration was determined by measuring absorbance at 550 nm using a spectrophotometer.

Arg2 = Arg2 protein expression in HAECs (Western blot); format: cell-based, human; conditions: for TSA (1 μmol/L) effect on Arg2 expression in pretreated cells: pretreatment with actinomycin D or cycloheximide (10 μg/mL)
Description: (§1) After 48 hrs of HAEC cells transfection, cells were lysed in ice cold RIPA lysis buffer consisting of 20 mM Tris-HCl at pH 7.5, 150 mM NaCl, 1 mM EDTA, 1 mM EGTA, 1% NP40, 1% sodium deoxycholate, 1 mM Na3VO4, 2.5 mM sodium pyrophosphate, 1 mM 3-glycerophosphate, 1 μg/mL leupeptin, and a 1:1000 diluted protease inhibitor cocktail (Sigma). For immunoprecipitation studies, whole cell lysate lysates were centrifuged at 14,000×g and supernatants were precleared by incubation with Protein A/G-agarose beads for 2 h at 4° C. with rocking. Agarose beads were then pelleted by centrifugation at 1,000×g. FLAG-Arg2 in precleared lysates were immunoprecipitated by incubation overnight at 4° C. with rocking following addition of anti-FLAG antibody (10 μl). Immune complexes were eluted in 2×SDS sample buffer by boiling for 5 minutes before loading into SDS-PAGE. Western blotting analysis was performed by transferring the SDS gel onto a PVDF membrane and visualized using secondary antibodies conjugated to alkaline phosphatases.

HDAC = conditions: cited from earlier work
eNOS = eNOS expression in HAECs (immunoblot); format: cell-based, human; conditions: 1 μmol/L, 18 hours
Description: as §1

HDAC2 = conditions: low-dose; cited from earlier work

HAEC arginase activity, short-term [1]: activating effect
SMILES: NC(=O)c1cccnc1 [Nicotinamide]
IC50 (SIRT): < 50 µM | Arg2 mRNA expression (Arg2 mRNA; nicotinamide 0.1 or 0.2 mmol/L, 18 hours): No changes | Arg2 mRNA levels (Arg2 mRNA; nicotinamide (5 mmol/L) as printed): no effect | Arg2 protein levels (Arg2; nicotinamide 5 mmol/L): no effect

SMILES: COc1ccc(Cn2ccc3ccc(C(=O)NO)cc32)cc1 [PCI-34051]
endothelial Arg2 expression, class-specific HDAC inhibitors (Arg2): no substantial effects; also recorded: slight increase

SMILES: O=C(CCCCCCC(=O)Nc1ccccc1)NO [SAHA, Suberoylanilide Hydroxamic Acid]
HDAC classes blocked (HDAC): 10 nM; block Class I and Class II HDACs | eNOS expression (eNOS): negligible effect

SMILES: O=C(CCCCCN1C(=O)c2cccc3cccc(c23)C1=O)NO [Scriptaid]
eNOS expression (eNOS): negligible effect | Arg2 expression, broad-spectrum HDAC inhibitors (Arg2; 1 μmol/L, 18 hours): upregulated

SMILES: Cc1c2oc3c(C)ccc(C(=O)N[C@@H]4C(=O)N[C@H](C(C)C)C(=O)N5CCC[C@H]5C(=O)N(C)CC(=O)N(C)[C@@H](C(C)C)C(=O)O[C@@H]4C)c3nc-2c(C(=O)N[C@@H]2C(=O)N[C@H](C(C)C)C(=O)N3CCC[C@H]3C(=O)N(C)CC(=O)N(C)[C@@H](C(C)C)C(=O)O[C@@H]2C)c(N)c1=O [actinomycin D] (I: T[dV]P[Sar][NMeV] / II: T[dV]P[Sar][NMeV]; ester I:1-I:C, II:1-II:C; linker I:N-II:N via Actinocin(9to1))
OxLDL-induced rise in Arg2 mRNA levels (Arg2 mRNA; with Actinomycin D): ablated | TSA (1 μmol/L) effect on Arg2 expression in pretreated cells (Arg2): failed to increase

SMILES: C[C@@H]1C[C@@H]([C@H](O)CC2CC(=O)NC(=O)C2)C(=O)[C@@H](C)C1 [cycloheximide]
TSA (1 μmol/L) effect on Arg2 expression in pretreated cells (Arg2): failed to increase | OxLDL-induced peak in Arg2 protein levels (Arg2; with cycloheximide): ablated

SMILES: Cn1c(=O)c2[nH]cnc2n(C)c1=O [theophylline, 1,3-dimethylxanthine]
HDAC2 activity and expression in alveolar macrophages (HDAC2): increases
